For two compounds, ED50 results are on record in patent publication EP0158265A2, “Benzamide and anilide derivatives” (BEECHAM GROUP PLC, priority 1984, dated 1985).

The test system of the test is von Bezold-Jarisch reflex evoked by 5HT. Nature of the test: Antagonism of the von Bezold-Jarisch reflex evoked by 5HT in the anaesthetised rat. In kind it is in vivo. To be noted: anaesthetised male rat; compound given intravenously; concentration reducing the 5HT-evoked heart rate response (5-HT usually 6µg/kg i.v.) to 50% of control. On the procedure:
Antagonism of the von Bezold-Jarisch reflex
The compounds were evaluated for antagonism of the von Bezold-Jarisch reflex evoked by 5HT in the anaesthetised rat according to the following method: • Male rats (Beecham Pharmaceuticals), 250-350g, were anaesthetised with urethane (1.25g/kg intraperitoneally) and blood pressure and heart rate recorded as described by Fozard J.R. et al., J. Cardiovasc. Pharmacol. 2, 229-245 (1980). A submaximal dose of 5-HT (usually 6µg/kg) was given repeatedly by the intravenous route and changes in heart rate quantified. Examples were given intravenously and the concentration required to reduce the 5HT-evoked response to 50% of the control response (ED50) was then determined.

`CN1C2CCC1CC(NC(=O)c1cc(Cl)cc(Cl)c1)C2` (stereo not drawn) [(2), 3,5-dichloro-N-[3β-{8-methyl-8-azabicyclo(3.2.1)octyl}] benzamide] yielded an ED50 of 0.3 mg/kg i.v.

In turn, `CN1C2CCC1CC(NC(=O)c1cc(Cl)cc(Cl)c1)C2` (stereo not drawn) [(5), 3,5-Dichloro-N-[3α-{8-methyl-8-azabicyclo(3.2.1)octyl}] benzamide] came in with an ED50 of 0.009 mg/kg i.v.
